Results reported in patent US20240325548A1, “DYNAMIC BIOACTIVE SCAFFOLDS AND THERAPEUTIC USES THEREOF AFTER CNS INJURY” (Northwestern University, priority 2021, published 2024).

Experiments:
[1] = T2-NMR spin-spin relaxation rate of PA assemblies; assay type: physicochemical; details: T2 relaxation of K residue of IKVAV PAs, no Ca2+
Protocol: NMR spectra were acquired at 600 MHz on a Tecmag NMR spectrometer using a Doty diffusion probe with a sweep width of 6 kHz and 16k data points or at 600 MHz on a Brucker Neo system with QCI-F cryoprobe.
NMR spectra for IKVAV PAs were recorded at 25° C. using TFA-d, H2O/D2O in 9/1 ratio (D2O contains 0.05 wt. % 3-(trimethylsilyl) propionic-2,2,3,3-d4 acid, sodium salt) as solvents. Chemical shifts are reported in part per million (ppm). Structural assignment was performed using ^1H,^1H-gCOSY, ^1H,^13C-gHSCQAD, TOCSY and NOESY. Multiplicities are quoted as singlet (s), doublet (d), multiplets (m), doublet of doublets (dd), doublet of doublet of doublets (ddd), triplet (t), quartet (q). The […] and typical spectra required 32 scans. Additional scans (512) were required for accurate estimation of the aromatic signal intensity since the epitope containing aromatic protons was present at only 10 mol %.
The spin-spin relaxation rates were measured using the Carr-Purcell-Gill-Meiboom pulse sequence with a delay time of 0.2 ms in a variable loop. The peak intensity data was fit to and exponential in the form:
where τ is the length of the delay time, R2 is the spin-spin relaxation rate and b are the baseline.

β1-INTEGRIN (ITGB1) = target: T1, β1-INTEGRIN (ITGB1) (Homo sapiens, UniProt P05556); test: ITGB1 activation and intracellular signaling in hNPCs treated with IKVAV PAs (confocal microscopy, WB); assay type: cell-based
T1 construct: endogenous in cells; host or cells: hNPCs differentiated from human embryonic stem cells HUES 64
T1 sequence (P05556 21-798): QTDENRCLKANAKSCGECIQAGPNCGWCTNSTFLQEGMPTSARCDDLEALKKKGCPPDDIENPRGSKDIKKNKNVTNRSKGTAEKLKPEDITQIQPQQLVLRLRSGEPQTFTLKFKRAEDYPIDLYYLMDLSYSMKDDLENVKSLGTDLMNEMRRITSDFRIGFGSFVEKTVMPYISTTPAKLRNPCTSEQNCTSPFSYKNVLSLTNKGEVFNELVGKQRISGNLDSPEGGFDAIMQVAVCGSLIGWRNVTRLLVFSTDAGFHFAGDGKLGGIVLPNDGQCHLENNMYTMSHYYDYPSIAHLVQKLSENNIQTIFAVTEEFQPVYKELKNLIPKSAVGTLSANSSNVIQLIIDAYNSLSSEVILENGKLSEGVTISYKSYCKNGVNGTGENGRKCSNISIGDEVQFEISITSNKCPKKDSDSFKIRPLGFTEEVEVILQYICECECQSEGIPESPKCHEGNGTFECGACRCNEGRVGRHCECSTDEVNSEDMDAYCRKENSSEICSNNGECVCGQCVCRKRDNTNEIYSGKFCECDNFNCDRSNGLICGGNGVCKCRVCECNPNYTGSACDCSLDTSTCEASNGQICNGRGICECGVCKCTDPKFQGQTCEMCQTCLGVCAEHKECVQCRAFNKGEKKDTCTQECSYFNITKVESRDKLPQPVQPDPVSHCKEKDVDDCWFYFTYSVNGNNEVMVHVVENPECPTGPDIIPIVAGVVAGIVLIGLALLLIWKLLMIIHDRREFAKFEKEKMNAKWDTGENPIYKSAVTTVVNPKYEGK
Description: (§1) Neural progenitor cells (NPCs) were differentiated from human embryonic stem cells HUES 64 (Harvard University) (see FIG. 2C). In short, 70% confluent stem cell cultures grown in Matrigel (Thermo Fisher) coated plates with mTESR medium (STEMCELL Technologies), were switched to N2B27 medium (50% DMEM: F12, 50% Neurobasal, supplemented with NEAA, Glutamax, N2 and B27; Gibco) containing dual SMAD inhibitors (SB431542, DNSK International and LDN-193189, Tocris) for 12 days to induce the generation of neural progenitors. Neuralization was enhanced by supplementing medium with laminin from day 5 to 12. Next, neural rosettes were dissociated with neural rosette selection reagent (STEMCELL Technologies) to obtain NPCs, which are expanded in N2B27 (Gibco) medium supplemented with bFGF (Millipore). For experimentation in the different PA platforms, NPCs were dissociated with Accutase (Innovative Cell technology), and cultured in the distinct platforms with DMEM: F12+N2+B27 medium with hyclone penicillin-streptomycin (GE Healthcare) and ascorbic acid (0.2 μg/mL; Sigma-Aldrich).
(§2) For IKVAV PA treatments, hNPCs were cultured on ornithine coatings (German Glass, Chemglass Life Science) in 6 well and 24 well plates at a density of 500,000 cells/well and 80,000 cells/well respectively. hNPCs were treated with […] of IKVAV PAs ([PA]=6 mM, [KCl]=3 mM, [NaCl]=150 mM) or recombinant laminin protein (10 mg/mL) in solution. IKVAV PA2 and IKVAV PA5 were also mixed with 5 mM CaCl2) at a ratio PA:CaCl2) 6:1 to treat hNPCs. For 2D experiments, hNPCs were cultured on the different IKVAV PAs or laminin coatings in 6 well and 24 well plates at densities mentioned above. For co-assembled experiments, hNPCs were cultured on the different co-assembled PA coatings in 6 well and 24 well plates at a density of 400,000 cells/well and 50,000 cells/well respectively.
(§3) hNPCs were fed 4 times a week with DMEM: F12+N2^+B27 medium with hyclone penicillin-streptomycin and ascorbic acid. After 24 h, 72 h 1- or 2-weeks in vitro, cell lysates were harvested or fixed for WB or ICC, respectively. Three replicates per condition and at least three independent experiments were carried out for all conditions investigated.
(§4) For immunofluorescence, fixed primary cultures or free-floating tissue sections (40 m Thick) were incubated in blocking buffer containing 0.02% Triton-X (Sigma-Aldrich), 1% NHS (Gibco) and PBS 1× (Gibco). Samples were incubated with primary antibodies over night at 4° C. Alexa-488, Alexa-555 and/or Alexa-647 (1:500, Thermofisher) were used as secondary antibodies. DAPI (1:500, Thermofisher) was used to stain nuclei. Finally, the samples were mounted on coverslips with Immu-Mount (Fisher Scientific) solution for imaging.
RIPA buffer (Thermofisher) with a cocktail of Halt Protease and Phosphatase Inhibitors (Thermofisher) was used to extract protein from in vitro and in vivo samples. For in vivo studies, spinal cord tissue was then sonicated using a horn sonicator (Branson) to break up the tissue. A Pierce™ BCA Protein Assay Kit (Thermofisher) was used to determine protein content for all samples used. Protein extracts obtained from cell cultures or tissue were separated using an SDS-polyacrylamide gel and electro-transferred to a nitrocellulose membrane (Bio-Rad). Membranes were blocked for 30 minutes to 1 hour using a 5% milk solution (Bio-Rad) and incubated over night with primary antibodies. Corresponding secondary HRP-conjugated antibodies (1:1000, ThermoFisher) were used for 1 h at room temperature. Radiance Bioluminescent ECL substrate (Azure Biosystems) was used to detect protein signal. The membranes were imaged using the Azure Biosystems imager and densitometry analysis were performed using ImageJ software.

hNPCs [2] = test: Neuronal differentiation of hNPCs treated with IKVAV PAs (TUJ-1+ cells); assay type: cell-based, human
Description: as §1, §2, §3, §4
For in vitro cell quantification, image files were imported into NIH Image J (1.51) software and the “analyze particles” and “cell counter” functions were used to measure the total number of cells in a determined area. Serial tissue sections were stained with NeuN and ChAT using free-floating immunostaining were quantified using Nikon Elements software. The rostral and caudal borders of the lesions were chosen as the first cross-sections that had NeuN staining in all four gray matter horns. 8 sections within the lesion were chosen per animal and expressed as number of neurons per section. Automated multichannel image acquisition, image stitching, and z-stack reconstruction ([…]) were carried out on a Nikon GasP R1 confocal microscope to image the entire selected cross-section for NeuN and Chat markers for all conditions.

[3] = test system: murine model of severe spinal cord injury (SCI); test: Corticospinal tract (CST) axon regrowth after SCI (BDA tracing); assay type: in vivo, mouse; details: 12 weeks after injury, BDA-labeled axons
Protocol: (§5) All experiments were conducted at the Simpson Querrey Institute at Northwestern University. 182 CD1 mice (Charles River) were subjects of this study (N=38 Sham, N=38 IKVAV PA2 alone, N=38 IKVAV PA2+FGF2 PA1, N=38 IKVAV PA2+FGF2 PA2, N=12 IKVAV PA1, N=12 Backbone PA, N=6 IKVAV PA4). The age of animals used in the study was in the range of 10-16 weeks. 8 independent in vivo experiments were carried out (injury+PA injection) and each of the 8 experiments had animals of the exact same age which were injected with at least the 4 main treatment groups: Sham, IKVAV PA2 alone, IKVAV PA2+FGF2 PA1, and IKVAV PA2+FGF2 PA2. Animals were anesthetized using 2.5% isoflurane gas with oxygen. A laminectomy was performed to expose the spinal cord at the T10-T11 spinal level. A severe contusive injury was performed using the Infinite Horizon Spinal Cord Impactor system (IH-0400 Precision Systems and Instrumentation) with 85 kdyn of impact force and a dwell time of 60 s. After the lesion, the skin was sutured using 9 mm wound clips (BD Biosciences) and the animals were recovered on a heating pad to maintain body temperature. Bladders were manually expressed daily during the entire 12 weeks of the experiment.
PAs (dissolved in sterile NaCl 0.9% solution at 1 wt %) were injected 24 h after SCI using a glass capillary micropipette (Sutter Instruments, Novato, CA) (outer diameter, 100 m) coated with Sigmacote (Sigma-Aldrich) to reduce surface tension as described elsewhere (19). The capillaries were loaded onto a Hamilton syringe using a female Luer adaptor (World Precision Instruments) controlled by a Micro4 microsyringe pump controller (World Precision Instruments). Under isoflurane anesthesia, autoclips were removed and the injury site was exposed. At 24 h post injury, the laminectomy in the spinal column was still intact and the bruise created by the lesion was visible. A stereotaxic Kopf apparatus was used to position the micropipette just dorsal to the lesion. The micropipette was lowered to a depth of 750 m measured from the dorsal surface of the cord, and 4-6 μL of the diluted amphiphile solution was injected at 1 L/min. […]
Axons labeled using BDA (Thermofisher, N7167) or stained with 5HT (Abcam) were quantified using Imaris® software version 9.3 as previously described (21). Lines were drawn across longitudinal spinal cord sections from the proximal border (PB) to the distal border (DB) of the SCI lesion at consistent distances and the number of axons intercepting the lines drawn was counted by researchers that were blinded to the experimental conditions. Multiple sections through the middle of the cord, where BDA or 5HT staining was denser, were counted per mouse and expressed as total intercepts per location, per animal. […]

[4] = test system: murine model of severe spinal cord injury (SCI); test: Glial scar, GAP-43, MBP, laminin and fibronectin in the SCI lesion (immunofluorescence, WB); details: mouse, in vivo
Protocol: as §5, with “After the lesion, the skin was sutured using 9 mm wound clips (BD Biosciences) and the animals were recovered on a heating pad to maintain body temperature. Bladders were manually expressed daily during the entire 12 weeks of the experiment.” left out
PAs (dissolved in sterile NaCl 0.9% solution at 1 wt %) were injected 24 h after SCI using a glass capillary micropipette (Sutter Instruments, Novato, CA) (outer diameter, 100 m) coated with Sigmacote (Sigma-Aldrich) to reduce surface tension as described elsewhere (19). […] The micropipette was lowered to a depth of 750 m measured from the dorsal surface of the cord, and 4-6 μL of the diluted amphiphile solution was injected at 1 L/min. […]

hNPCs [5] = test: hNPC attachment, proliferation and phenotype on co-assembled PA coatings (EdU, SOX-2, PAX6); assay type: cell-based, human
Description: as §1, §2, §3
For the hNPCs proliferation assay, 2 μM of the thymidine analog 5-ethynyl-2′-deoxyuridine (EdU, Thermo Fisher) was incorporated into the culture medium for 24 h. Cells were fixed at the indicated time points in 4% paraformaldehyde (PFA) for 15 min at RT. After fixation, samples were washed in PBS twice and then stained with Click-iT™ EdU Cell Proliferation Kit containing 11 mM CuSO4 (from 50 mM stock) and 1 μg/mL of Alexa Fluor-555 azide (from 0.5 mg/mL, Thermo Fisher) for 30 minutes at RT in the dark. The staining cocktail was then removed, and cells were washed with PBS. Then, hNPCs were counterstained with anti-rabbit SOX-2 antibody following the immunofluorescence protocol described below and 4′, 6-diamidino-2-phenylindole (DAPI, Thermo Fisher) at 5 μg/mL in PBS for 20 min at RT. The cells were then washed with PBS and mounted with Immu-Mount (Fisher Scientific) for imaging.
as §4, with “Finally, the samples were mounted on coverslips with Immu-Mount (Fisher Scientific) solution for imaging.” left out

Row | Substance | R2 [1] [s⁻¹] | in vitro bioactivity (summary) (β1-INTEGRIN (ITGB1)) | percentage of induction of TUJ-1+ neuronal cells (hNPCs [2]) [%] | CST axon regrowth within the lesion [3] | glial scar (reactive astrocytes, GFAP) at the borders of the injury [4] | percentage of proliferating EdU+ and SOX2+ cells (hNPCs [5]) | percentage of neuronal progenitor cells PAX6+ (hNPCs [5]; one week later)
1 | C16-V2A2E2 (VVAAEE) [Backbone PA] |  |  |  | hardly observed | dense population of reactive astrocytes expressing high levels of GFAP |  | 
2 | laminin |  |  |  |  |  | decreased significantly | increased percentage

Continued, in another order:

Row | R2 [1] [s⁻¹] | in vitro bioactivity (summary) (β1-INTEGRIN (ITGB1)) | Substance | percentage of induction of TUJ-1+ neuronal cells (hNPCs [2]) [%] | CST axon regrowth within the lesion [3] | glial scar (reactive astrocytes, GFAP) at the borders of the injury [4] | percentage of proliferating EdU+ and SOX2+ cells (hNPCs [5]) | percentage of neuronal progenitor cells PAX6+ (hNPCs [5]; one week later)
3 | 4.5 ± 0.7 | low level of in vitro bioactivity | C16-AVG2E4GIKVAV [IKVAV PA3] | 7.5±0.6 |  |  |  | 
4 | 6.1 ± 0.8 | low level of in vitro bioactivity | C16-VA3E4GIKVAV [IKVAV PA6] | 7.9±1.3 |  |  |  | 
5 | 6.0 ± 0.03 | low level of in vitro bioactivity | C16-AVA2E4GIKVAV [IKVAV PA7] | 7.4±0.6 |  |  |  | 
6 | 4.5 ± 0.2 | low level of in vitro bioactivity | C16-A4E4GIKVAV [IKVAV PA8] | 7.5±0.5 |  |  |  | 
